Data as given in PubChem BioAssay (NCI).
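Step 1: Grow cells in 96-well plates. Step 2: Expose to compound for 48 hours at 5 concentrations. Step 3: Interpolate endpoints linearly; if unreached, use highest concentration. Abbreviation: GI50, concentration required for 50% inhibition of growth. TGI: total growth inhibition.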

Key:
Test in all cases: growth of human tumour cells (NCI), 48 h
[1] = test system: OVCAR-4 ovarian
[2] = test system: SK-MEL-2 melanoma
[3] = test system: SK-MEL-5 melanoma
[4] = test system: RXF 393 renal
[5] = test system: KM12 colon
[6] = test system: UACC-62 melanoma
[7] = test system: U251 CNS
[8] = test system: T-47D breast
[9] = test system: PC-3 prostate
[10] = test system: LOX IMVI melanoma

SMILES	GI50 [1] [µM]	TGI [1] [µM]	GI50 [2] [µM]	TGI [2] [µM]	GI50 [3] [µM]	TGI [3] [µM]	GI50 [4] [µM]	TGI [4] [µM]	GI50 [5] [µM]	TGI [5] [µM]	GI50 [6] [µM]	TGI [6] [µM]	GI50 [7] [µM]	TGI [7] [µM]	GI50 [8] [µM]	TGI [8] [µM]	GI50 [9] [µM]	TGI [9] [µM]	GI50 [10] [µM]	TGI [10] [µM]
CC(C)CC1C(=O)N2CCC[C@H]2C2(O)O[C@](NC(=O)C3C=C4c5cccc6[nH]c(Br)c(c56)C[C@H]4N(C)C3)(C(C)C)C(=O)N12 (some centres not stated)	5.78	> 100	22.6	> 100	4.57	> 100	4.87	> 100	6.23	> 100	29.7	> 100	9.4	> 100	2.9	> 100	3	> 100	21.6	> 100
Cc1nc2ccccn2c1NC(=O)NNC(=S)Nc1ccc(Br)cc1	66.2	> 100	77.8	> 100	47.7	> 100	52.6	> 100	35.4	> 100	27.8	> 100	32.1	> 100	48.2	> 100	24.5	> 100	24	67.3
CCOC(CCCNCCCn1c2c(c3cc(OC)c(OC)cc3c1=O)C(=O)c1cc3c(cc1-2)OCO3)OCC	6.69	13.1	7.59	14.2	7.62	14.3	4.45	10.7	5.93	12.1	6.03	12.2	1.51	9.44	7.76	14.4	5.38	11.3	1.73	9.81
Cc1ncc(C(=O)Nc2ccc(CN3CCN(C)CC3)c(C(F)(F)F)c2)cc1C#Cc1cnc(N)c2cnccc12	0.0447	4.25	0.0243	0.0941	0.0805	0.604	0.0706	0.399		11.2	0.019	0.105	0.0864	2.35	0.317	> 32.8	0.225	16.3	0.0335	0.158
NC(=O)C1c2ccccc2C=Cc2ccccc21	> 100	> 100	> 100	> 100	> 100	> 100	> 100	> 100	> 100	> 100	> 100	> 100	> 100	> 100	> 100	> 100	> 100	> 100	> 100	> 100
Nc1ccccc1SC(CC(=O)c1ccccc1)c1ccc([N+](=O)[O-])cc1 (configuration not stated)	12.6	25.9	18	33	15.6	29.4	15.8	29.6	3.86	14.9	12.1	24.5	4.51	16.9	12.1	36.3	10.3	22.4	1.91	4.15
COc1ccc(CCN2CCCN3C2=Nc2ccccc2S3(=O)=O)cc1	0.912	> 100	0.521	> 100	0.357	16.4	0.622	> 100	0.451	> 100	0.744	> 100	0.388	> 100	0.56	> 100	0.529	> 100	0.669	> 100
CC(C)CCSC1=CC(=O)c2ccccc2C1=O	1.57	3.05	6.73	17.3	0.723	20.1	5.06	16.3	7.36	21.5	4.02	14.8	8.11	21.5	1.19	3.51	1.96	6.85	3.56	15.6
CNC(=O)c1c(NC(=O)c2ccc(C(F)(F)F)cc2)sc2c1CCC(=O)C2	0.604	1.92	1.36	5.46	1.11	2.58	0.41	2.15	0.668	2.46	0.617	2.23	0.314	2.06	0.305	2.38	0.186	1.35	0.361	2.27
CCNCCC1(CC)C(=O)NC(=O)NC1=O		> 100		> 100		> 100		> 100		> 100		> 100		> 100		> 100		> 100		> 100
C[C@H]1CC[C@H]([C@@H](C)[C@H]2[C@@H](O)C[C@H]3[C@@H]4CC[C@H]5C[C@@H](O)CC[C@]5(C)[C@H]4CC[C@]23C)NC1		34.1		46		44		47.7		30.2		28.5		31.9		30.8		31		50.6
COc1cccc(Cn2c(-c3nonc3N)nc3ccccc32)c1	2.26	> 65.9	0.353	15.4	0.375	> 70.5	0.244	0.675	0.515	> 100	0.493	> 100	0.436	> 92.2	0.475	> 100	0.435	> 84.2	0.547	> 100
CN[C@@H](C)C(=O)N[C@H]1CN(C(=O)CC(C)C)CC[C@H]2CC[C@@H](C(=O)NC(c3ccccc3)c3ccccc3)N2C1=O	0.664	8.42	43.7	> 100	41.9	> 100	7.38	> 100	> 100	> 100	> 100	> 100	> 100	> 100	> 100	> 100	> 100	> 100	> 100	> 100
C#CCSc1n[nH]c(-c2ccco2)n1		> 100		> 100		> 100		> 100		> 100		> 100		> 100		> 100		> 100		> 100
COC(=O)[C@@]1(Cc2ccccc2)[C@H]2c3cc(C(=O)N4CCCC4)n(Cc4ccc(OC)c(OC)c4)c3C[C@H]2CN1C(=O)c1ccccc1	16.4	> 50	8.76	18.7	7.71	14.4	5.89	12.8	9.44	18.2	7.49	15.8	13	40.7	9.55	32.1	22.6	> 50	9.12	16.8
COc1ccc(-c2nsc3c2NC(=O)CC3c2ccc(F)cc2)cc1 (configuration not stated)	12.7	> 100	3.22	12	3.22	> 100	5.91	> 77.5	3.13	> 100	4.66	> 100	4	> 100	4.64	> 100	3.33	> 100	7.18	> 100
C[C@@H](N)C1CCC(C(=O)Nc2ccncc2)CC1 (some centres not stated)	> 100	> 100	> 100	> 100	> 100	> 100	> 100	> 100	> 100	> 100	> 100	> 100	> 100	> 100	> 100	> 100	> 100	> 100	> 100	> 100
C=CC(=O)N1C/C(=C\c2ccccc2)C(=O)/C(=C/c2ccccc2)C1		6.6		4.81		3.12		4.43	0.443	2.4		3.68	0.376	2.62		18.4		3.91	0.357	0.638
N=C(N)/N=C(\N)c1c(-c2cc(O)ccc2O)nc2sccn12	33.9	> 100	44.9	> 100	> 100	> 100	20.6	41.6	34.8	> 100	44.6	> 100	46.1	> 100	20.7	45.1	26.7	> 100	22.8	44.5
O=C(CSc1nc2ccccc2nc1-c1ccccc1)Nc1ccc(Cl)cc1	13.6	> 100	51.7	> 100	19.3	> 100	19.1	62.7	59.4	> 100	20.7	> 100	23.6	67.7	13	> 100	30.6	> 100	38.3	> 100
